In patent US9035056B2, “Pyrido[4,3-b]indole and pyrido[3,4-b]indole derivatives and methods of use” (Medivation Technologies, Inc., priority 2011, dated 2015):

Columns and labels:
[1] = target: T1, human recombinant dopamine D2L receptor (Homo sapiens, UniProt P14416); assay: Dopamine D2L radioligand binding ([3H]Spiperone); conditions: 1 μM compound; read-out: Percentage inhibition of ligand binding, Dopamine D2L
T1 construct: expressed in transfected cells; host or cells: CHO
Protocol: To evaluate in radioligand binding assays the activity of compounds of the invention, human recombinant dopamine D2L receptor expressed in Chinese hamster ovary (CHO) cells (Grandy, D. et al, Proc. Natl. Acad. Sci. USA. 86:9762, 1989; Hayes, G. et al, Mol. Endocrinol. 6:920, 1992) in a modified Tris-HCl buffer (50 mM Tris-HCl, pH 7.4, 1.4 mM Ascorbic Acid, 0.001% BSA, 150 mM NaCl) was used. Compounds of the invention were incubated with 0.16 nM [^3H]Spiperone for 120 min at 25° C. Non-specific binding was estimated in the presence of 10 μM Haloperidol. Receptor proteins were filtered and washed, the filters were then counted to determine [^3H]Spiperone specifically bound. Compounds were screened at 1 μM or lower, using 1% DMSO as vehicle. Biochemical assay results are presented as the percent inhibition of specific binding in Table 4.

[2] = target: T2, human recombinant serotonin (5-Hydroxytryptamine) 5-HT5A receptor (Homo sapiens, UniProt P47898); assay: Serotonin 5-HT5A radioligand binding ([3H]LSD); conditions: 0.1 μM compound; read-out: Percentage inhibition of ligand binding, Serotonin 5-HT5A
T2 construct: expressed in transfected cells; host or cells: CHO-K1
Protocol: To evaluate in radioligand binding assays the activity of compounds of the invention, human recombinant serotonin (5-Hydroxytryptamine) 5-HT5A receptor expressed in Chinese hamster ovary (CHO) K1 cells (Rees, S. et al, FEBS Lett. 355:242, 1994) in a modified Tris-HCl buffer (50 mM Tris-HCl, pH 7.4, 10 mM MgCl2, 0.5 mM EDTA) was used. Compounds of the invention were incubated with 1.7 nM [^3H]Lysergic acid diethylamide (LSD) for 60 min at 37° C. Non-specific binding was estimated in the presence of 100 μM Serotonin (5-HT). Receptor proteins were filtered and washed, the filters were counted to determine [^3H]LSD specifically bound. Compounds were screened at 1 μM or lower, using 1% DMSO as vehicle. Biochemical assay results are presented as the percent inhibition of specific binding in Table 5.

[3] = target: T3, rat adrenergic α1A receptor (Rattus norvegicus, UniProt P43140); assay: Adrenergic α1A radioligand binding ([3H]Prazosin); conditions: 0.1 μM compound; read-out: Percentage inhibition of ligand binding, Adrenergic α1A
T3 construct: rat adrenergic α1A receptor obtained from Wistar Rat submaxillary glands; from tissue; host or cells: Wistar rat submaxillary glands
T3 sequence (P43140 1-466): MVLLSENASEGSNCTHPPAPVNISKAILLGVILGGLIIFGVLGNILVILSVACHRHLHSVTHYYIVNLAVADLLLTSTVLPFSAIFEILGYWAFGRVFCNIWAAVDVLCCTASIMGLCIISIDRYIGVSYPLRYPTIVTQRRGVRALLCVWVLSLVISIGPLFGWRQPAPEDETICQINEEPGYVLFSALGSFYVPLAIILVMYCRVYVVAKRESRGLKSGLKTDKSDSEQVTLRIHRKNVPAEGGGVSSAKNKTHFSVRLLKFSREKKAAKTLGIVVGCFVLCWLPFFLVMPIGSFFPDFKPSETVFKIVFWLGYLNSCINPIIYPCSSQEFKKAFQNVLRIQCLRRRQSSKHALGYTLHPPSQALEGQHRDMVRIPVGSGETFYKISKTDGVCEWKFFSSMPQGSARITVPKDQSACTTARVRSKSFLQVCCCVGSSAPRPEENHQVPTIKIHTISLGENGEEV
Protocol: To evaluate in radioligand binding assays the activity of compounds of the invention, rat adrenergic α1A receptor obtained from Wistar Rat submaxillary glands (Michel, A. et al, Br. J. Pharmacol. 98:883, 1989) in a modified Tris-HCl buffer (50 mM Tris-HCl buffer, pH 7.4, 0.5 mM EDTA) was used. Compounds of the invention were incubated with 0.25 nM [^3H]Prazosin for 60 min at 25° C. Non-specific binding was estimated in the presence of 10 μM phentolamine. Receptor proteins were filtered and washed, the filters were then counted to determine [^3H]Prazosin specifically bound. Compounds of the invention were screened at 1 μM or lower, using 1% DMSO as vehicle. Biochemical assay results are presented as the percent inhibition of specific binding in Table 3.

[4] = target: T4, human recombinant serotonin (5-Hydroxytryptamine) 5-HT6 receptor (Homo sapiens, UniProt P50406); assay: Serotonin 5-HT6 radioligand binding ([3H]LSD); conditions: 0.1 μM compound; read-out: Percentage inhibition of ligand binding, Serotonin 5-HT6
T4 construct: expressed in transfected cells; host or cells: HeLa
Protocol: To evaluate in radioligand binding assays the activity of compounds of the invention, human recombinant serotonin (5-Hydroxytryptamine) 5-HT6 receptor expressed in human HeLa cells (Monsma, F. Jr. et al, Mol. Pharmacol. 43:320, 1993) in a modified Tris-HCl buffer (50 mM Tris-HCl, pH 7.4, 150 mM NaCl, 2 mM Ascorbic Acid, 0.001% BSA) was used. Compounds of the invention were incubated with 1.5 nM [3H]Lysergic acid diethylamide (LSD) for 120 min at 37° C. Non-specific binding was estimated in the presence of 5 μM Serotonin (5-HT). Receptor proteins were filtered and washed, the filters were then counted to determine [3H]LSD specifically bound. Compounds were screened at 1 μM or lower, using 1% DMSO as vehicle. Biochemical assay results are presented as the percent inhibition of specific binding in Table 5.

T4 sequence (P50406 whole entry): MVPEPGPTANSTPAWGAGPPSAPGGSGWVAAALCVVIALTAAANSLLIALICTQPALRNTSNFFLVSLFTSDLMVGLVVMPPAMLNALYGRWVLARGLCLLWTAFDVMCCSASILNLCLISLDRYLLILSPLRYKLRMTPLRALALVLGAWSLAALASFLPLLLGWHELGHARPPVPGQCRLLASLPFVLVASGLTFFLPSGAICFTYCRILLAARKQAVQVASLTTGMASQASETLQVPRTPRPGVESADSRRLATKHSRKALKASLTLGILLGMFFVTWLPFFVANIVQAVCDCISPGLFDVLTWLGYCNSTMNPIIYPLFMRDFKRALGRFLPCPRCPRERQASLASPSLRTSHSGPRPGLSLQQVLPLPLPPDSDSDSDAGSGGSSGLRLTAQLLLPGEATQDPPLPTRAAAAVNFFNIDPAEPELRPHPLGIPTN
T2 sequence (P47898 whole entry): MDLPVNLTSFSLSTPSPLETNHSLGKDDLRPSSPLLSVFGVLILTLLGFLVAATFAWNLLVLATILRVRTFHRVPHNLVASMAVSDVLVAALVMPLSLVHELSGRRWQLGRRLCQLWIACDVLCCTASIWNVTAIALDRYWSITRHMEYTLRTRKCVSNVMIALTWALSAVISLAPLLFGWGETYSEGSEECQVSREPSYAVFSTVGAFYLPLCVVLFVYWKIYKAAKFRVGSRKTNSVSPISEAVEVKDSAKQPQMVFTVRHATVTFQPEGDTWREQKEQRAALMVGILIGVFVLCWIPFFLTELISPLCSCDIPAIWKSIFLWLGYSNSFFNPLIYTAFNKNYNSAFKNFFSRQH
T1 sequence (P14416 whole entry): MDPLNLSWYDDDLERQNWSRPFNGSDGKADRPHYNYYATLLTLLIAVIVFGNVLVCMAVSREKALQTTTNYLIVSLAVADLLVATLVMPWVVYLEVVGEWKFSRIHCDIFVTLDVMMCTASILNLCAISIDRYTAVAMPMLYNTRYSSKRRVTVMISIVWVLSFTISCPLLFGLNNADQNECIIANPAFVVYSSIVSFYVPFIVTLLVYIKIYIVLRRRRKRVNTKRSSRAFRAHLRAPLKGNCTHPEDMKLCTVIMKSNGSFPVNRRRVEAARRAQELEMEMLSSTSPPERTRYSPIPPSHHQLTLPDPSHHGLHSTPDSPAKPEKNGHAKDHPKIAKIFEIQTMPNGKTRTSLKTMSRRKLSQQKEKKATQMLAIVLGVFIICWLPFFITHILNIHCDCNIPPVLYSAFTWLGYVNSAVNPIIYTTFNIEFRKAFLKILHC

SMILES: Cc1ccc2c(c1)c1c(n2/C=C2/CCCc3ccccc32)CCN(C)C1 [i-2]
- inhibition at 1 µM [1]: 47%
- inhibition at 0.1 µM [2]: 101%
- inhibition at 0.1 µM [3]: 51%
- inhibition at 0.1 µM [4]: 102%

SMILES: Cc1ccc2c(c1)c1c(n2/C=C2\CCCc3ccccc32)CCN(C)C1 [i-3]
- inhibition at 1 µM [1]: 49%
- inhibition at 0.1 µM [2]: 91%
- inhibition at 0.1 µM [3]: 18%
- inhibition at 0.1 µM [4]: 83%
